The target of data set [1] is T1, human amylin 3(a) receptor (human calcitonin receptor + RAMP-3), BHK570 cells (Homo sapiens, UniProt O60896+P30988).
T1 construct: host or cells: BHK570
Nature of the data set: Assay (II)a functional CRE-luciferase assay with albumin, human amylin receptor. In kind it is cell-based. The following applies: Tested with HSA; read-out: hAmylin-R funct. EC50. An excerpt:
(§1) Assay(II)a—Human Calcitonin and Amylin Receptor Assay
(§2) 1. Luciferase Assay Outline
(§3) Activation of calcitonin and amylin (co-expression of calcitonin receptor and receptor activity modifying proteins (RAMP)) receptors lead to increased intracellular concentrations of cAMP. Consequently, transcription is activated by promoters containing multiple copies of the cAMP response element (CRE). It is thus possible to measure amylin activity by the use of a CRE luciferase reporter gene introduced into BHK cells also expressing calcitonin or amylin receptors.
(§4) 2. Construction of Calcitonin (a)—and Amylin 3(a)—Receptor/CRE-Luc Cell Line.
(§5) A BHK570 cell line was stably transfected with the human calcitonin receptor and a CRE-responsive luciferase reporter gene. The cell line was further transfected with RAMP-3, using standard methods. This turns the calcitonin receptor into an amylin 3(a) receptor. Methotrexate, Neomycin, and Hygromycin are selection markers for luciferase, the calcitonin receptor, and RAMP-3, respectively.
(§6) To perform activity assays, BHK calcitonin (a) receptor- or amylin 3(a)-receptor/CRE-luc cells were seeded in white 96 well culture plates at a density of about 20.000 cells/well. […] After incubation overnight at 37° C. and 5% CO2, the growth medium was replaced by 50 μl/well assay medium (DMEM (without phenol red), Glutamax™, 10% FBS, and 10 mM Hepes, pH 7.4). Further, 50 μl/well of standard or sample in assay buffer were added.
(§7) After 3 hours incubation at 37° C. and 5% CO2, the assay medium with standard or sample were removed and replaced by 100 μl/well PBS. Further, 100 μl/well LucLite™ was added. The plates were sealed and incubated at room temperature for 30 minutes. Finally, luminescence was tested on a TopCounter (Packard) in SPC (single photon counting) mode.

In data set [2] the target is T2, human calcitonin (a) receptor, BHK570 cells (Homo sapiens, UniProt P30988).
T2 construct: host or cells: BHK570
T2 sequence (P30988 25-474): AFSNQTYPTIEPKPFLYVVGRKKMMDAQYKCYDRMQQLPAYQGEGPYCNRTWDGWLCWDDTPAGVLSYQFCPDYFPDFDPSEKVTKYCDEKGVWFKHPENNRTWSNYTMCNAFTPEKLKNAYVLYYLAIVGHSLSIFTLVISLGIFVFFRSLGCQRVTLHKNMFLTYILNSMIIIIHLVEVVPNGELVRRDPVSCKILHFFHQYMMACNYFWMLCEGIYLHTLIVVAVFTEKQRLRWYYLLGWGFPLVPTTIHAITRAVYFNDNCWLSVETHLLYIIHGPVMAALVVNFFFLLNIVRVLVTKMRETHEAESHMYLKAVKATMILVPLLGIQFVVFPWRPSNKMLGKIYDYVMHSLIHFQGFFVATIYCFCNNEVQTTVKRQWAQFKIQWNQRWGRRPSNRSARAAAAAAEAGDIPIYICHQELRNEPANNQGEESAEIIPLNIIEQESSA
Put plainly: Assay (II)b functional CRE-luciferase assay without albumin, human calcitonin receptor. Format: cell-based. The following applies: Tested without HSA; read-out: hCTR funct. EC50. In a few lines:
(§8)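 BHK570 cells stably expressing human calcitonin receptor with CRE-luciferase reporter, plus RAMP-3 for the amylin 3(a) line. Cells stimulated 3 hours at 37 °C in albumin-free assay medium (0.1% ovalbumin, 10 mM Hepes pH 7.4); cAMP-driven luciferase read by luminescence.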

Data set [3] deals with T1, human amylin 3(a) receptor (human calcitonin receptor + RAMP-3), BHK570 cells. Nature of the data set: Assay (II)b functional CRE-luciferase assay without albumin, human amylin receptor. Conditions: Tested without HSA; read-out: hAmylin-R funct. EC50. Format: cell-based. The method in brief:
as §8

In data set [4] the target is T2, human calcitonin (a) receptor, BHK570 cells. Nature of the data set: Assay (II)a functional CRE-luciferase assay with albumin, human calcitonin receptor. Format: cell-based. The following applies: Tested with HSA; read-out: hCTR funct. EC50.
Source text: as §1, §2, §3, §4, §5, §6, §7

The nature of data set [5]: Assay (IV) determination of solubility. In kind it is physicochemical. Here is the method:
Assay (IV)—Determination of Solubility
The mimylin peptide was dissolved in water at ˜500 nmol/ml and mixed 1:1 with a series of buffers (100 mM glycylglycine pH 3.0, 100 mM glycylglycine pH 4.0, 100 mM glycylglycine pH 5.0, 100 mM bistrispropane pH 6.0, 100 mM bistrispropane pH 6.5, 100 mM bistrispropane pH 7.0, 100 mM bistrispropane pH 7.5, 100 mM bistrispropane pH 8.0).

Data set [6] has as its target T3, human amylin receptor (human calcitonin receptor + human RAMP3), BHK tk'ts 13 cells (Homo sapiens, UniProt O60896+P30988).
T3 construct: expressed in transfected cells; host or cells: BHK tk'ts 13
Nature of the data set: Assay (Va) binding to the human amylin receptor (whole cell). Conditions: read-out: hAmylin-R binding IC50. As for the experimental part:
The day before the assay the cells were Seeded into Poly-D-Lysin coated 384W Opaque White, BD BioCoat plates (10000 cells/well) and Incubated overnight at 37° C., 5% CO2, 95% humidity.

Data set [7] addresses T4, rat calcitonin receptor (Rattus norvegicus, UniProt P32214).
T4 construct: expressed in transfected cells; host or cells: BHK tk'ts 13 (transient, FuGENE 6)
T4 sequence (P32214 25-479 isoform P32214-2 limits assumed): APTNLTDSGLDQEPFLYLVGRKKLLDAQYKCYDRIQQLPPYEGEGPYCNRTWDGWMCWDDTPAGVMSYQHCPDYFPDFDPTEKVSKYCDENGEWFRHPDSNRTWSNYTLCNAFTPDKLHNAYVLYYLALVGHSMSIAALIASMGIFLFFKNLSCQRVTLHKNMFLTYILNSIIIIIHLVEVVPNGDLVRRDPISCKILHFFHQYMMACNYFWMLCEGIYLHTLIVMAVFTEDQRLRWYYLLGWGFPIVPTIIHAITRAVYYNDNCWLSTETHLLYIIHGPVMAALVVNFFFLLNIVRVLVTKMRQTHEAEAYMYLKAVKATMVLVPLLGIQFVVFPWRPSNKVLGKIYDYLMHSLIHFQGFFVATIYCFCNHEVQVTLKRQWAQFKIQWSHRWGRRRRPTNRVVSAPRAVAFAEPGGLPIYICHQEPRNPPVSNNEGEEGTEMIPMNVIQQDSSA
Nature of the data set: Assay (VIII) binding to the rat calcitonin receptor. Conditions: membranes; read-out: rCT-R binding IC50. The method in brief: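 Competition binding on membranes from BHK tk'ts 13 cells transiently transfected with rat calcitonin receptor, otherwise run as the human receptor assay. Plates washed in cold HBSS, lysed in 0.1 M NaOH/1% SDS and scintillation-counted. IC50 from one-site competition fit as affinity measure.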

pEC50, pIC50: −log10 of the molar value. Numbered stars: 1 amine (or outer) side, 2 acyl side, 3 side chain; on linkers, the order of the positions; unused ones are H or OH. Side chains are listed from the residue outwards. Peptide text beside a SMILES is read from it. * marks the point of attachment. C20 diacid = O=C(O)CCCCCCCCCCCCCCCCCCC(=O)*; C18 diacid = O=C(O)CCCCCCCCCCCCCCCCC(=O)*; γGlu = O=C(O)[C@H](CCC(=O)[*:2])N[*:1]

What is called pEC50 is the EC50 on a negative log10 scale, so that one unit is a factor of ten. For orientation: solubility means the concentration that dissolves in the medium under given conditions. By pIC50 is commonly meant the IC50 on a negative log10 scale, so that one unit is a factor of ten.

T1 sequence (O60896 24-148, one chain of several): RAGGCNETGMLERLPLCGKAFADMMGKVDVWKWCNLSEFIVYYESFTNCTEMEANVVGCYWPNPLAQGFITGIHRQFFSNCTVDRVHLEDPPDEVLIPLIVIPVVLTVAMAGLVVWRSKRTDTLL
T3 sequence (O60896 24-148, one chain of several): as above

For `CC(C)C[C@H](NC(=O)[C@H](C)NC(=O)[C@H](C)NC(=O)[C@@H](NC(=O)[C@H](CO)NC(=O)[C@H](CC(C)C)NC(=O)[C@H](CCC(=O)O)NC(=O)[C@H](CO)NC(=O)[C@H](C)NC(=O)CC[C@H](NC(=O)CCCCCCCCCCCCCCCCC(=O)O)C(=O)O)[C@@H](C)O)C(=O)NCC(=O)N[C@@H](CCCNC(=N)N)C(=O)N[C@@H](CC(C)C)C(=O)N[C@@H](CO)C(=O)N[C@@H](C)C(=O)N[C@@H](CCC(=O)O)C(=O)N[C@@H](CC(C)C)C(=O)N[C@@H](Cc1c[nH]cn1)C(=O)N[C@@H](CCC(=O)O)C(=O)N[C@@H](CC(C)C)C(=O)N[C@@H](C)C(=O)N[C@H](C(=O)N[C@@H](Cc1ccc(O)cc1)C(=O)N1CCC[C@H]1C(=O)N[C@@H](CCCNC(=N)N)C(=O)N[C@H](C(=O)N[C@@H](CCC(=O)O)C(=O)N[C@H](C(=O)NCC(=O)N[C@@H](CO)C(=O)NCC(=O)N[C@@H](CO)C(=O)N1CCC[C@H]1C(N)=O)[C@@H](C)O)[C@@H](C)O)[C@@H](C)O` [compound 58, [N-terminal(C18 diacid-gGlu), des1, 23Y, 30S, 31G]mimylin] ({C18 diacid-γGlu}-ASELSTAALGRLSAELHELATYPRTETGSGSP-NH2), the pEC50 in data set [1] was 10.62; in data set [2] it was 11.00; in data set [3], 11.00; in data set [4], 10.82. Further, the solubility at 18 h in data set [5] (bistrispropane buffer, pH 6.5) was at least 200 µM; in data set [5] (bistrispropane buffer, pH 7.5), at least 200 µM; in data set [5] (bistrispropane buffer, pH 6.0) it was at least 200 µM; in data set [5] (bistrispropane buffer, pH 7.0), at least 200 µM; in data set [5] (bistrispropane buffer, pH 8.0), at least 200 µM; in data set [5] (glycylglycine buffer, pH 3.0), at least 200 µM. Moreover, the solubility at 18 h was at least 200 µM in data set [5] (glycylglycine buffer, pH 4.0) and at least 200 µM in data set [5] (glycylglycine buffer, pH 5.0).
In the case of `CC(C)C[C@H](NC(=O)[C@H](CCC(=O)O)NC(=O)[C@H](Cc1c[nH]cn1)NC(=O)[C@H](CC(C)C)NC(=O)[C@H](CCC(=O)O)NC(=O)[C@H](C)NC(=O)[C@H](CO)NC(=O)[C@H](CC(C)C)NC(=O)[C@H](CCCNC(=N)N)NC(=O)CNC(=O)[C@H](CC(C)C)NC(=O)[C@@H](NC(=O)[C@H](C)NC(=O)[C@@H](NC(=O)[C@@H](NC(=O)[C@H](CC(C)C)NC(=O)[C@H](CCC(=O)O)NC(=O)[C@H](CO)NC(=O)[C@H](C)NC(=O)CC[C@H](NC(=O)CCCCCCCCCCCCCCCCC(=O)O)C(=O)O)[C@@H](C)O)[C@@H](C)O)C(C)C)C(=O)N[C@@H](C)C(=O)N[C@H](C(=O)N[C@@H](CC(C)C)C(=O)N1CCC[C@H]1C(=O)N[C@@H](CCCNC(=N)N)C(=O)N[C@H](C(=O)N[C@@H](CCC(=O)O)C(=O)N[C@H](C(=O)NCC(=O)N[C@@H](CO)C(=O)NCC(=O)N[C@@H](CO)C(=O)N1CCC[C@H]1C(N)=O)[C@@H](C)O)[C@@H](C)O)[C@@H](C)O` [compound 85, [N-terminal(C18 diacid-gGlu), des1, 6T, 9V, 30S, 31G]mimylin] ({C18 diacid-γGlu}-ASELTTAVLGRLSAELHELATLPRTETGSGSP-NH2), the pEC50 in data set [1] was 10.72; in data set [2], 10.55; in data set [3], 10.48; in data set [4], 11.05. For the same molecule, in data set [6], the pIC50 is 9.19. Also, the solubility at 18 h in data set [5] (bistrispropane buffer, pH 6.5) was at least 200 µM; in data set [5] (bistrispropane buffer, pH 7.5), at least 200 µM; in data set [5] (bistrispropane buffer, pH 6.0), at least 200 µM; in data set [5] (bistrispropane buffer, pH 7.0), at least 200 µM; in data set [5] (bistrispropane buffer, pH 8.0), at least 200 µM; in data set [5] (glycylglycine buffer, pH 3.0), at least 200 µM. Moreover, the solubility at 18 h is at least 200 µM in data set [5] (glycylglycine buffer, pH 4.0) and at least 200 µM in data set [5] (glycylglycine buffer, pH 5.0).
With `CC(C)C[C@H](NC(=O)[C@H](C)NC(=O)[C@H](C)NC(=O)[C@@H](NC(=O)[C@H](CO)NC(=O)[C@H](CC(C)C)NC(=O)[C@H](CCCCNC(=O)CC[C@H](NC(=O)CCCCCCCCCCCCCCCCCCC(=O)O)C(=O)O)NC(=O)[C@H](CO)NC(=O)[C@H](C)N)[C@@H](C)O)C(=O)NCC(=O)N[C@@H](CCCNC(=N)N)C(=O)N[C@@H](CC(C)C)C(=O)N[C@@H](CO)C(=O)N[C@@H](C)C(=O)N[C@@H](CCC(=O)O)C(=O)N[C@@H](CC(C)C)C(=O)N[C@@H](Cc1c[nH]cn1)C(=O)N[C@@H](CCC(=O)O)C(=O)N[C@@H](CC(C)C)C(=O)N[C@@H](C)C(=O)N[C@H](C(=O)N[C@@H](CC(C)C)C(=O)N1CCC[C@H]1C(=O)N[C@@H](CCCNC(=N)N)C(=O)N[C@H](C(=O)N[C@@H](CCC(=O)O)C(=O)N[C@H](C(=O)NCC(=O)N[C@@H](CO)C(=O)NCC(=O)N[C@@H](CO)C(=O)N1CCC[C@H]1C(N)=O)[C@@H](C)O)[C@@H](C)O)[C@@H](C)O` [compound 52, [des1, 4K(C20 diacid-gGlu), 30S, 31G]mimylin] (H-ASK([γGlu-C20 diacid])LSTAALGRLSAELHELATLPRTETGSGSP-NH2; N-terminus assumed), the pEC50 in data set [1] is 10.13; in data set [2], 10.47; in data set [3] it was 10.41; in data set [4] it was 10.52. The solubility at 18 h in data set [5] (bistrispropane buffer, pH 6.5) is at least 200 µM; in data set [5] (bistrispropane buffer, pH 7.5), at least 200 µM; in data set [5] (bistrispropane buffer, pH 6.0) it was at least 200 µM; in data set [5] (bistrispropane buffer, pH 7.0), at least 200 µM; in data set [5] (bistrispropane buffer, pH 8.0) it was at least 200 µM; in data set [5] (glycylglycine buffer, pH 3.0), at least 200 µM. Moreover, the solubility at 18 h in data set [5] (glycylglycine buffer, pH 4.0) was at least 200 µM; in data set [5] (glycylglycine buffer, pH 5.0), at least 200 µM. The pIC50 in data set [7] is 9.94.

The values above are taken from patent publication US9593149B2, “Amylin and calcitonin receptor agonist” (Novo Nordisk A/S, priority 2014, dated 2017).
